Data published in the METLIN SMRT retention time set (Domingo-Almenara et al. 2019).

Assay: gradient 5% acetonitrile 3 min, to 50% in 2 min, to 85% in 15 min, held 3 min, 100 µL/min
Details: column: Zorbax Extend-C18 2.1 x 50 mm; eluents: water / acetonitrile, 0.1% formic acid
Summary of the method: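 Each retention time is based on an adduct peak selected computationally and verified by manual inspection. Measurements used HPLC–quadrupole time-of-flight mass spectrometry in positive and negative ionization mode on mixtures of ~100 pure standards. Chromatography ran on a Zorbax Extend-C18 column (2.1 × 50 mm, 1.8 μm) at 100 μL/min with water and acetonitrile, each containing 0.1% formic acid, and dead and dwell volumes of 40 μL and 900 μL.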

Row | Structure (SMILES) | RP-LC retention time
1 | CCOc1ccc(CNC(=S)Nc2ccc3nc(N4CCN(C)CC4)cc(C)c3c2)cc1 | 614 s
2 | Cc1ccc(-c2nc3ncccn3c2NCc2ccc(F)cc2)cc1C | 789 s
3 | Cc1cccc(N2CCN([C@H]3CS(=O)(=O)C[C@@H]3S(=O)(=O)c3ccc(F)c(C)c3)CC2)c1 | 986 s
4 | O=C(CN1C(=O)CCc2cc(Br)ccc21)Nc1ccc(F)cc1 | 903 s
5 | CC(C)NC(=O)C1Cn2cccc2C(=O)N1C (configuration not stated) | 651 s
6 | Cc1nc2c(nc1C)C(=O)c1ccccc1C2=O | 655 s
7 | CC(C)(C)C(=O)Nc1cnc(-c2cccc(Cl)c2)nc1 | 1070 s
8 | COc1ccc(C2(C(=O)N3CCC(Cc4ccc(COc5ccncc5)cc4)CC3)CC2)cc1 | 750 s
9 | Cc1ccc(Cl)cc1NC(=O)N1CCC(n2cnnc2C2CC2)C1 (configuration not stated) | 653 s
10 | COc1ccccc1N1CCN(C(=O)C2CCCN(c3cnc4nccnc4c3)C2)CC1 (configuration not stated) | 688 s
11 | O=C1CCCN2N=C(SCc3ccc([N+](=O)[O-])cc3)SC2=N1 | 779 s
12 | CS(=O)(=O)N1CCC(C(=O)Nc2nc3c(s2)COCC3)CC1 | 604 s
13 | CN(C)C(=O)c1ccc2c(c1)nc(CN1CCN(C(=O)NC3CCCCC3)CC1)n2C | 565 s
14 | CC(C)c1ccc(OCC(=O)N(Cc2ccc(Br)o2)C2CCS(=O)(=O)C2)cc1 (configuration not stated) | 1050 s
15 | CC(C)n1c(N2CCN(C(=O)c3ccnn3C)CC2)cc(=O)n(C(C)C)c1=O | 725 s
16 | O=c1c2cnn(-c3ccc(Br)cc3)c2ncn1Cc1nc(-c2ccccc2)no1 | 1150 s
17 | CCC1CCCCN1C(=O)c1cnc2nc(C)ccc2c1Nc1ccc2c(c1)OCO2 (configuration not stated) | 623 s
18 | O=C(CN1CCN(C(=O)Nc2ccc(Br)cc2)CC1=O)NC1CCCCC1 | 735 s
19 | O=C(c1cn(-c2cccc(Cl)c2)nn1)N1CCN(c2ccccc2F)CC1 | 882 s
20 | CN(CCCNC(=O)C1CCCN(c2ncnc3c2nc2n3CCCCC2)C1)Cc1ccccc1 (configuration not stated) | 616 s
21 | CN(CC(=O)N1CCN(c2ccccc2F)CC1)S(=O)(=O)c1c[nH]c(C(=O)N2CCCCC2)c1 | 836 s
22 | CN(C)C1(CC2CC2)CCN(C(=O)c2ccoc2)CC1 | 556 s

More lines, now with the values ahead:

Row | RP-LC retention time | Structure (SMILES)
23 | 556 s | O=C(Cc1cccs1)NCCCN1CCOC(c2ccccc2)C1 (configuration not stated)
24 | 754 s | Cc1cccc(N2CCN(C(=O)COc3ccc(NC(=O)C4CC4)cn3)CC2)c1
25 | 604 s | Cc1occc1C(=O)NC1CCc2nn(C)c(=O)n2CC1 (configuration not stated)
26 | 723 s | CCCn1cc(CCNC(=O)c2cncc(Br)c2)c2cccnc21
27 | 819 s | CC(NS(=O)(=O)c1ccc(Cl)c(-c2nnc(-c3ccccc3)o2)c1)C(=O)O (configuration not stated)
28 | 832 s | COC(=O)C1=CN(c2ccccc2C)c2cc(F)ccc2S1(=O)=O
29 | 646 s | CC(NC(=O)c1ccco1)C(=O)NCc1nn(C)c2ccccc12 (configuration not stated)
30 | 837 s | CN1C(=O)C(C)(C(=O)NCc2ccc(Br)cc2)Oc2cccnc21 (configuration not stated)
31 | 609 s | CC(C)Cn1c(=O)c(C(=O)NCc2cccc(F)c2)nc2cccnc21
32 | 693 s | CCC(=O)N1CCc2cc(N3CC(C(=O)Nc4cccc(C)c4)CC3=O)ccc21 (configuration not stated)
33 | 1030 s | COc1cc(C(=O)Nc2ncc(Cc3cccc4ccccc34)s2)cc(OC)c1OC
34 | 949 s | CC1(C(=O)NCc2ccc(F)cc2)CCCN(C(=O)Nc2ccccc2C(F)(F)F)C1 (configuration not stated)
35 | 615 s | CSc1ccccc1NC(=O)C(=O)NCC1CCN(Cc2cc(C)oc2C)CC1
36 | 746 s | O=C(c1cccnn1)N1CC(F)(F)C[C@H]1c1nnc(-c2ccccc2)o1
37 | 751 s | CCn1c(C(=O)NCCC(C)C)cc2c(=O)oc3ccccc3c21
